Results reported in PMC10967448 (Antibiotics, 2024).
Values after ≈ are worked out from the molar mass of the structure shown. Like-named read-outs stand apart in the source and are kept apart here. Square brackets hold non-standard residues; d marks the D form. Peptide text beside a SMILES is read from it. Aib = CC(C)(N)C(=O)O

Experiments:
M. smegmatis [1] = test system: M. smegmatis
[2] = test system: pandrug-resistant Acinetobacter baumannii; parameters: method as in PMID 36081797; conditions: cited from earlier work
ClpCP1P2 = conditions: 10 μM COG1410; 1 μM ClpC, 2 μM ClpP1 and ClpP2, 100 μM ATP, 1 μM FITC-casein, 1 h, 37 °C, pH 7.5
ClpC = ClpC (Mycolicibacterium smegmatis, UniProt A0R574); experiment: biochemical; format: binding, Mycobacterium smegmatis
Description: (§1) All the binding data were double-referenced by blank cycle and reference flow cell subtraction. The resulting data fit a 1:1 Langmuir binding model using Biacore Insight Evaluation Software 4.0 (GE Healthcare).

ClpC (S437P) = ClpC (S437P) (Mycolicibacterium smegmatis, UniProt A0R574, S437P); experiment: biochemical; format: binding, Mycobacterium smegmatis
Description: as §1

M. smegmatis [3] = test system: M. smegmatis; remark: listed apart in the source
[4] = […], Tables 2 and 3 print no unit (text b20 uses μg/mL), micro-dilution, 37 °C, 48 h
[5] = […], Tables 2 and 3 print no unit, micro-dilution, 37 °C, 48 h
[6] = strain clpC (KD), Tables 2 and 3 print no unit, micro-dilution, 37 °C, 48 h

Chain of ClpC (S437P) (A0R574 whole entry S437P, looked up): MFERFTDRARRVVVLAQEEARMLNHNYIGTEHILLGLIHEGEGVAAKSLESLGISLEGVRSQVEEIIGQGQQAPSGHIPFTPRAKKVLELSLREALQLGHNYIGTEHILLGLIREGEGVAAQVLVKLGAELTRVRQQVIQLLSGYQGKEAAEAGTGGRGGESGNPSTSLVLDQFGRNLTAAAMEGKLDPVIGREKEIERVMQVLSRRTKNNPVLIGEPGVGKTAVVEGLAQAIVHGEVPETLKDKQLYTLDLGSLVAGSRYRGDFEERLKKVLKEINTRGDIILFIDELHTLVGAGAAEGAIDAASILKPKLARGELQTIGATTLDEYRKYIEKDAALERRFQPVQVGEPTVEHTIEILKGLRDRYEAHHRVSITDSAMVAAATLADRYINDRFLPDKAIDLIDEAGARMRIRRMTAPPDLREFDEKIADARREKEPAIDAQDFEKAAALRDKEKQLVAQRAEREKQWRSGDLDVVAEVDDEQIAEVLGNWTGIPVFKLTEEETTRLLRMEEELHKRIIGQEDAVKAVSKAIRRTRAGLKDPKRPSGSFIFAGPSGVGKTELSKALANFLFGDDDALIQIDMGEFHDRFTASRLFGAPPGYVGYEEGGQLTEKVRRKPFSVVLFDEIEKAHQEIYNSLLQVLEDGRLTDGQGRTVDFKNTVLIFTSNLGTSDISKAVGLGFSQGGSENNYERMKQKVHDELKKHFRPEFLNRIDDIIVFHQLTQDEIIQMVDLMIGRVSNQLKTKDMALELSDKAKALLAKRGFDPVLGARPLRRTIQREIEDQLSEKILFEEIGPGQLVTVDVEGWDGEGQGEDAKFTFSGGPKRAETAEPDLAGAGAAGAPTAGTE
Chain of ClpC (A0R574 whole entry): as the sequence (A0R574 whole entry S437P, looked up) above, with P437S counted along it

**Q.** With `CC(=O)NC[C@H]1CN(c2ccc(N3CCOCC3)c(F)c2)C(=O)O1` [linezolid] as the molecule, how does the MIC (M. smegmatis [1]; [4]) read?
**A.** The MIC was 1.

**Q.** And the MIC (M. smegmatis [1]; [5])?
**A.** The MIC was 1 µg/mL (≈ 2.96 µM).

**Q.** And the MIC (M. smegmatis [1]; [6])?
**A.** The MIC was 1 µg/mL (≈ 2.96 µM).

**Q.** Which MIC (M. smegmatis [1]; [4]) does the source give for IRMRIRVLL [antiTB_1080] here?
**A.** Its MIC is 32.

**Q.** And the MIC (M. smegmatis [1]; [5])?
**A.** The MIC was 128 µg/mL.

**Q.** And the MIC (M. smegmatis [1]; [6])?
**A.** Its MIC is greater than 256 µg/mL.

**Q.** Which “fold increase of MIC after 55 passages in the presence of sub-MIC agent” value [2] does the source give for polymyxin B here?
**A.** The value was 64 fold.

**Q.** For LRVRLASHLRKLRKRLL [COG133], which anti-mycobacterial activity (M. smegmatis [1]; M. smegmatis, result in words) is on record?
**A.** Its anti-mycobacterial activity is “did not demonstrate anti-mycobacterial activity”.

**Q.** And the MIC (M. smegmatis [1]; [4])?
**A.** Its MIC is greater than 256.

**Q.** And the MIC (M. smegmatis [1]; [5])?
**A.** The MIC was greater than 256 µg/mL.

**Q.** And the MIC (M. smegmatis [1]; [6])?
**A.** Its MIC is greater than 256 µg/mL.

**Q.** And the “increase in proteolytic activity, ClpCP1P2 system” value (ClpCP1P2)?
**A.** Its value is “no influence on proteolytic activity”.

**Q.** For LRKLRKRLVRLASHLRKLRKRLL [ApoE23], which MIC (M. smegmatis [1]) is on record?
**A.** Its MIC is 128 µg/mL.

**Q.** What about the MIC (M. smegmatis [1]; [4]) of the same molecule?
**A.** The MIC was 128.

**Q.** And the MIC (M. smegmatis [1]; [5])?
**A.** Its MIC is greater than 128 µg/mL.

**Q.** What about the MIC (M. smegmatis [1]; [6]) of the same molecule?
**A.** Its MIC is greater than 128 µg/mL.

**Q.** What about the “increase in proteolytic activity, ClpCP1P2 system” value (ClpCP1P2) of the same molecule?
**A.** The value was “substantial increase in proteolytic activity”.

**Q.** Which MIC (M. smegmatis [1]; [4]) does the source give for WKWLKKWIK [antiTB_1026] here?
**A.** The MIC was 32.

**Q.** And the MIC (M. smegmatis [1]; [5])?
**A.** The MIC was 256 µg/mL.

**Q.** And the MIC (M. smegmatis [1]; [6])?
**A.** Its MIC is greater than 256 µg/mL.

**Q.** Which Kd (ClpC) does the source give for `CC(=O)N[C@@H](C)C(=O)N[C@@H](CO)C(=O)NC(C)(C)C(=O)N[C@@H](CC(C)C)C(=O)N[C@@H](CCCNC(=N)N)C(=O)N[C@@H](CCCCN)C(=O)N[C@@H](CC(C)C)C(=O)NC(C)(C)C(=O)N[C@@H](CCCCN)C(=O)N[C@@H](CCCNC(=N)N)C(=O)N[C@@H](CC(C)C)C(=O)N[C@@H](CC(C)C)C(N)=O` [COG1410] (Ac-AS[Aib]LRKL[Aib]KRLL-NH2) here?
**A.** Its Kd is 2030 nM.

**Q.** And the kon (ClpC; pH 7.4, read-out: association constant (ka))?
**A.** Its kon is 5780 M⁻¹ s⁻¹.

**Q.** What about the MIC (M. smegmatis [1]; strain 35g/pSMT3-ClpC (S437P), micro-dilution, 37 °C, 48 h, triplicate) of the same molecule?
**A.** The MIC was 256 µg/mL (≈ 182 µM).

**Q.** What about the MIC (M. smegmatis [1]; strain WT/pSMT3-ClpC (overexpression), micro-dilution, 37 °C, 48 h, triplicate) of the same molecule?
**A.** Its MIC is 16 µg/mL (≈ 11.4 µM).

**Q.** And the MIC (M. smegmatis [1]; strain clpC (KD), knockdown, micro-dilution, 37 °C, 48 h, triplicate)?
**A.** Its MIC is greater than 256 µg/mL.

**Q.** And the MIC (M. smegmatis [1]; strain clpC (KD)/pSMT3-ClpC (S437P), micro-dilution, 37 °C, 48 h, triplicate)?
**A.** The MIC was greater than 256 µg/mL.

**Q.** What about the Kd (ClpC (S437P)) of the same molecule?
**A.** Its Kd is 1310 nM.

**Q.** What about the kon (ClpC (S437P); pH 7.4, read-out: ka) of the same molecule?
**A.** Its kon is 9900 M⁻¹ s⁻¹.

**Q.** And the MBC (M. smegmatis [3]; strain 35g/pSMT3-ClpC (S437P))?
**A.** The MBC was greater than 256 µg/mL.

**Q.** And the MBC (M. smegmatis [3]; strain clpC (KD), knockdown)?
**A.** The MBC was greater than 256 µg/mL.

**Q.** What about the MBC (M. smegmatis [3]; strain clpC (KD)/pSMT3-ClpC (S437P)) of the same molecule?
**A.** The MBC was greater than 256 µg/mL.

**Q.** Which MIC (M. smegmatis [1]; [4]) does the source give for `CC[C@H]1OC(=O)[C@H](C)[C@@H](O[C@H]2C[C@@](C)(OC)[C@@H](O)[C@H](C)O2)[C@H](C)[C@@H](O[C@@H]2O[C@H](C)C[C@H](N(C)C)[C@H]2O)[C@](C)(O)C[C@@H](C)CN(C)[C@H](C)[C@@H](O)[C@]1(C)O` [azithromycin] here?
**A.** Its MIC is 2.

**Q.** And the MIC (M. smegmatis [1]; [5])?
**A.** The MIC was 2 µg/mL (≈ 2.67 µM).

**Q.** What about the MIC (M. smegmatis [1]; [6]) of the same molecule?
**A.** Its MIC is 2 µg/mL (≈ 2.67 µM).

**Q.** Which MIC (M. smegmatis [1]; [4]) does the source give for `CO[C@@]1(NC(=O)Cc2cccs2)C(=O)N2C(C(=O)O)=C(COC(N)=O)CS[C@@H]21` [cefoxitin] here?
**A.** Its MIC is 16.

**Q.** What about the MIC (M. smegmatis [1]; [5]) of the same molecule?
**A.** The MIC was 16 µg/mL (≈ 37.4 µM).

**Q.** And the MIC (M. smegmatis [1]; [6])?
**A.** The MIC was 16 µg/mL (≈ 37.4 µM).

**Q.** Which MIC (M. smegmatis [1]; [4]) does the source give for `NCC[C@H](O)C(=O)N[C@@H]1C[C@H](N)[C@@H](O[C@H]2O[C@H](CN)[C@@H](O)[C@H](O)[C@H]2O)[C@H](O)[C@H]1O[C@H]1O[C@H](CO)[C@@H](O)[C@H](N)[C@H]1O` [amikacin] here?
**A.** Its MIC is 0.5.

**Q.** What about the MIC (M. smegmatis [1]; [5]) of the same molecule?
**A.** The MIC was 0.5 µg/mL (≈ 0.854 µM).

**Q.** And the MIC (M. smegmatis [1]; [6])?
**A.** The MIC was 0.5 µg/mL (≈ 0.854 µM).
